# Experimental data reported in patent US20240343699A1, “DERIVATIVES OF SUBSTITUTED MORPHOLINES AND USES THEREOF” (Supernus Pharmaceuticals, Inc., priority 2023, published 2024).
# Where a name gives a salt, the structure may show the parent alone.
# Columns and labels:
# [1] = tested on: rat red blood cells; assay: Hemolysis in rat blood; format: cell-based; settings: rat blood, 60 min exposure; read-out: EC50 (% RBC lysis)
# Experimental: Stability of Test Articles at Different pH Values. 10 mM stock solutions of COMPOUND A were prepared in DMSO. From this stock solution, a single concentration in a 10 μL aliquot was added to three fluid matrices: SGF at pH 2.0 (gastric), SIF at pH 6.0 (upper intestine), and PBS at 7.4 (systemic). The final volume was 1 mL (0.1 mM). The preparations were then incubated at 37° C. and samples were collected at 0, 15, 30, 60, and 120 min for analysis of parent material by LC/MS/MS. The collected sample was quenched in acetonitrile/0.1% formic acid mixture. Red Blood Cell (RBC): Human and rat blood were centrifuged to separate out red blood cells at […] for 15 min. The upper plasma level was aspirated with a micropipette and placed in a bleach solution for disposal. The RBC pellet was resuspended in sterile isotonic saline. The pellet was gently resuspended by rocking the tube. The sample was then centrifuged again to collect the RBC pellet and then resuspended and washed one more time following the same procedure. A total of three was done. Following the last wash and centrifugation, the RBCs were resuspended with PBS; and mixed by inversion. Aliquots of the resuspended and washed RBCs were then placed into 4 reaction tubes. These tubes were centrifuged to collect the RBCs. The fluid level was marked on each tube, then the supernatant was aspirated off and the cells resuspended with room temperature PBS pH 7.4 to the original mark. An aliquot of the RBC suspension was added to four sterile tubes containing PBS pH 7.4 at room temperature.
# Stability in Human and Rat Red Blood cells and Hemolysis. […] After centrifugation, 70 μL of supernatant (without disturbing the pellet) was transferred to a clean and clear polystyrene flat bottomed 96-well plate and the absorbance of the sample at a single wavelength was measured using a Bio Tech Synergy Hl Plate Reader at a wavelength of 410 nm. […] Stability was measured by measuring loss of parent compound using LC/MS/MS.
# [2] = tested on: recognition memory; assay: Spontaneous novel object recognition (NOR), 48 hr retention interval; format: in vivo, male Wistar rats; settings: donepezil 2.0 mg/kg i.p., 48 hr delay
# [3] = tested on: immobility; assay: Tail suspension test (TST); settings: imipramine 15 mg/kg IP, vs vehicle (p=0.01)
# Experimental: The tail suspension test is an experimental method used in scientific research to measure a state of being helpless in rodents, especially in mice. It is based on the observation that if a mouse is subjected to short term inescapable stress then the mouse will stop struggling. Immobility is quantified by measuring the amount of time lacking whole body activity.
# The immobilized time in the last 4 min of the TST, which indicated depression-like behavior, was quantified using offline video manual scoring in a blinded manner.
# Animals. Adult (7 to 8 weeks) male mice (C57Bl/6, Charles River Laboratories) were used in the study. Upon arrival, animals were group-housed (5/cage) with access to food and water ad libitum. Animals were maintained on a 12/12-hour light/dark cycle in a temperature—(22±2° C.) and humidity—(approx. 50%) controlled room. Animals were numbered consecutively by tail marks. Each cage was identified by a card indicating the study number, sex, animal numbers and date of birth.
# Test article formulations were prepared fresh based on weight-to-volume in the vehicle on each dosing day. […] The appearance of the formulations was clear, with no precipitations. […] A vehicle group was included for comparison.
# Monitoring. A piezoelectric sensor operated by the SmartCage system was utilized and video recording was conducted for scoring. After animals acclimated to the testing room, an individual mouse's tail was placed onto the piezoelectric sensor-board and the mouse was hung upside down, which signaled the immediate start of the recording of struggle activity, and it lasted for 6 min. The mouse was then taken off and returned to the home cage. The immobilized time, indicating depression-like behavior, was quantified using manual scoring of the video recordings for the period from 120 seconds to 360 seconds during TST. The percent immobility time was calculated: (immobility time/240 seconds)*100.
# The immobilized time in the last 4 min of the TST, which indicates depression-like behavior, was quantified using offline video manual scoring in a blinded manner.
# Animals. Adult (8 weeks, approximately 20-25 g) male mice (C57Bl/6, Vendor: Charles River Laboratories) were used in the study. Upon arrival, animals were group-housed (5/cage) with access to food and water ad libitum. Animals were maintained on a 12/12-hour light/dark cycle in a temperature—(22±2° C.) and humidity—(35-50%) controlled room. Animals were numbered consecutively by tail ID. Each cage was identified by a colored card indicating the study number, sex, animal numbers and date of birth.
# Test article formulations were prepared fresh based on weight-to-volume in the vehicle on dosing day. […] The appearance of the formulations was clear, with no precipitations.
# The tail suspension test is an experimental method used in scientific research to measure a state of being helpless in rodents, especially in mice. It is based on the observation that if a mouse is subjected to short term inescapable stress then the mice will give up struggling. “Immobility” is quantified by measuring the amount of time during which the animal has no whole-body activity.
# Tail Suspension Test (TST). A piezoelectric sensor operated by the SmartCage system was utilized and video recording was conducted for scoring. Once animals were acclimated to the testing room, the TST was initiated by placing the tail of the test mouse onto the piezoelectric sensor-board and hanging the mouse upside down. The recording period was initiated once the mouse was upside down and lasted for 6 min. After the recording period, the mouse was removed from the recording device and returned to its home cage.
# [4] = tested on: recognition memory; assay: Novel object recognition, scopolamine-impairment model, 3 hr retention interval
smiles,measurement,setting,value
"C[C@@H]1[C@H](O)[C@@H](C)/C=C/C=C/C=C/C=C/C=C/C=C/C=C/[C@H](O[C@@H]2O[C@H](C)[C@@H](O)[C@H](N)[C@@H]2O)C[C@@H]2O[C@](O)(C[C@@H](O)C[C@@H](O)[C@H](O)CC[C@@H](O)C[C@@H](O)CC(=O)O[C@H]1C)C[C@H](O)[C@H]2C(=O)O [amphotericin B, reference compound]",EC50,[1],4.73 µM
"COc1cc2c(cc1OC)C(=O)C(CC1CCN(Cc3ccccc3)CC1)C2 (stereo not drawn) [donepezil, reference compound]",preference for the novel object (exploration times),[2],significant preference for the novel object
"CN(C)CCCN1c2ccccc2CCc2ccccc21 [imipramine, reference compound]",percent immobility time,[3],significantly reduced immobility time
"CN1[C@@H]2C[C@@H](OC(=O)[C@H](CO)c3ccccc3)C[C@H]1[C@@H]1O[C@@H]12 [scopolamine, (−)-scopolamine hydrobromide]",d2 ratios vs vehicle-controls,[4]; vehicle-scopolamine 0.2 mg/kg i.p.,significantly impaired compared to the vehicle-controls
Cc1ccc(Sc2ccccc2N2CCNCC2)c(C)c1 [vortioxetine],memory enhancement (attenuation of the scopolamine impairment),"[4]; vortioxetine 10 mg/kg s.c. + scopolamine 0.2 mg/kg i.p., 3 hr delay",not associated with significant memory enhancement
same,adverse reactions,"[4]; vortioxetine-scopolamine combination, three of the twelve rats, A/A session","adverse reactions during the A/A session (thigmotaxis, vocalizations, labored breathing)"
